# Literature values in patent US20180110792A1, “COMPOSITIONS AND METHODS FOR INHIBITING GLYCATION REACTIONS” (Access Business Group International LLC, priority 2016, published 2018).
# Details: human, in vivo
structure (smiles),measurement,value
N=C(N)NN [aminoguanadine],adverse effects in clinical trials,demonstrated adverse effects in clinical trials
